Patent US8192962B2, “Processes for detecting toxic substances” (Daikin Industries, Ltd., priority 2001, dated 2012)

System: Metabolism protein genes
Assay: DNA chip mRNA expression in yeast, metabolism protein genes (Table 7)
Assay type: cell-based, Saccharomyces cerevisiae S288C
Method in brief: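 S. cerevisiae S288C grown at 25° C in YPD were exposed in log phase for two hours to one toxic chemical at a growth-inhibiting, non-lethal concentration; untreated cells served as control. Poly(A) mRNA was reverse-transcribed with Cy3/Cy5-dUTP and hybridized to a whole-genome yeast DNA chip at 65° C for over 12 hours; values are fluorescence ratios versus untreated.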

In the case of `CCCCC[C@H](O)CC(=O)CCc1ccc(O)c(OC)c1` [(13), gingerol], the “The level of expressed mRNA in the presence of chemical substance/The level of expressed mRNA in the absence of chemical substance” value (yeast gene YAL012W) is reported as 1.1, the “The level of expressed mRNA in the presence of chemical substance/The level of expressed mRNA in the absence of chemical substance” value (yeast gene YAL038W) is reported as 1.8 and the “The level of expressed mRNA in the presence of chemical substance/The level of expressed mRNA in the absence of chemical substance” value (yeast gene YAL044C) is reported as 1.1. For the same compound, the “The level of expressed mRNA in the presence of chemical substance/The level of expressed mRNA in the absence of chemical substance” value (yeast gene YAL054C) was 1.8, the “The level of expressed mRNA in the presence of chemical substance/The level of expressed mRNA in the absence of chemical substance” value (yeast gene YAR071W) was 0.3 and the “The level of expressed mRNA in the presence of chemical substance/The level of expressed mRNA in the absence of chemical substance” value (yeast gene YBL001C) was 1.0. The “level of expressed mRNA in the presence/in the absence of chemical substance” value (yeast gene YBR003W) was 1.2, the “level of expressed mRNA in the presence/in the absence of chemical substance” value (yeast gene YBR011C) was 1.5 and the “The level of expressed mRNA in the presence of chemical substance/The level of expressed mRNA in the absence of chemical substance” value (yeast gene YBR014C) was 0.9. The “level of expressed mRNA in the presence/in the absence of chemical substance” value (yeast gene YBR020W) was 1.1, the “The level of expressed mRNA in the presence of chemical substance/The level of expressed mRNA in the absence of chemical substance” value (yeast gene YBR023C) was 0.5 and the “The level of expressed mRNA in the presence of chemical substance/The level of expressed mRNA in the absence of chemical substance” value (yeast gene YBR029C) was 1.7. The “The level of expressed mRNA in the presence of chemical substance/The level of expressed mRNA in the absence of chemical substance” value (yeast gene YBR035C) was 1.8, the “The level of expressed mRNA in the presence of chemical substance/The level of expressed mRNA in the absence of chemical substance” value (yeast gene YBR068C) was 2.2 and the “The level of expressed mRNA in the presence of chemical substance/The level of expressed mRNA in the absence of chemical substance” value (yeast gene YBR111C) was 1.6. The “The level of expressed mRNA in the presence of chemical substance/The level of expressed mRNA in the absence of chemical substance” value (yeast gene YBR183W) was 1.4, the “The level of expressed mRNA in the presence of chemical substance/The level of expressed mRNA in the absence of chemical substance” value (yeast gene YBR222C) was 1.6 and the “The level of expressed mRNA in the presence of chemical substance/The level of expressed mRNA in the absence of chemical substance” value (yeast gene YBR256C) was 3.5. For the same compound, the “The level of expressed mRNA in the presence of chemical substance/The level of expressed mRNA in the absence of chemical substance” value (yeast gene YBR296C) was 2.0, the “The level of expressed mRNA in the presence of chemical substance/The level of expressed mRNA in the absence of chemical substance” value (yeast gene YCL009C) was 1.6 and the “The level of expressed mRNA in the presence of chemical substance/The level of expressed mRNA in the absence of chemical substance” value (yeast gene YCL064C) was 1.6. For the same compound, the “level of expressed mRNA in the presence/in the absence of chemical substance” value (yeast gene YCR010C) was 1.0, the “level of expressed mRNA in the presence/in the absence of chemical substance” value (yeast gene YCR034W) was 0.2 and the “The level of expressed mRNA in the presence of chemical substance/The level of expressed mRNA in the absence of chemical substance” value (yeast gene YCR037C) was 1.3. For the same compound, the “The level of expressed mRNA in the presence of chemical substance/The level of expressed mRNA in the absence of chemical substance” value (yeast gene YCR048W) was 1.3, the “The level of expressed mRNA in the presence of chemical substance/The level of expressed mRNA in the absence of chemical substance” value (yeast gene YCR098C) was 1.4 and the “The level of expressed mRNA in the presence of chemical substance/The level of expressed mRNA in the absence of chemical substance” value (yeast gene YDL021W) was 5.3. The “The level of expressed mRNA in the presence of chemical substance/The level of expressed mRNA in the absence of chemical substance” value (yeast gene YDL022W) was 1.5, the “The level of expressed mRNA in the presence of chemical substance/The level of expressed mRNA in the absence of chemical substance” value (yeast gene YDR009W) was 1.2 and the “The level of expressed mRNA in the presence of chemical substance/The level of expressed mRNA in the absence of chemical substance” value (yeast gene YDR019C) was 1.0. The “level of expressed mRNA in the presence/in the absence of chemical substance” value (yeast gene YDR050C) was 2.0, the “level of expressed mRNA in the presence/in the absence of chemical substance” value (yeast gene YDR073W) was 0.6 and the “level of expressed mRNA in the presence/in the absence of chemical substance” value (yeast gene YDR123C) was 0.9. The “level of expressed mRNA in the presence/in the absence of chemical substance” value (yeast gene YDR178W) was 1.5, the “level of expressed mRNA in the presence/in the absence of chemical substance” value (yeast gene YDR277C) was 1.2 and the “level of expressed mRNA in the presence/in the absence of chemical substance” value (yeast gene YDR284C) was 1.2. For the same compound, the “level of expressed mRNA in the presence/in the absence of chemical substance” value (yeast gene YDR345C) was 1.2, the “level of expressed mRNA in the presence/in the absence of chemical substance” value (yeast gene YDR400W) was 0.7 and the “level of expressed mRNA in the presence/in the absence of chemical substance” value (yeast gene YDR408C) was 0.5. For the same compound, the “The level of expressed mRNA in the presence of chemical substance/The level of expressed mRNA in the absence of chemical substance” value (yeast gene YDR410C) was 1.2, the “level of expressed mRNA in the presence/in the absence of chemical substance” value (yeast gene YDR483W) was 1.3 and the “The level of expressed mRNA in the presence of chemical substance/The level of expressed mRNA in the absence of chemical substance” value (yeast gene YDR487C) was 1.5. For the same compound, the “The level of expressed mRNA in the presence of chemical substance/The level of expressed mRNA in the absence of chemical substance” value (yeast gene YDR502C) was 1.2, the “The level of expressed mRNA in the presence of chemical substance/The level of expressed mRNA in the absence of chemical substance” value (yeast gene YDR516C) was 2.5 and the “The level of expressed mRNA in the presence of chemical substance/The level of expressed mRNA in the absence of chemical substance” value (yeast gene YEL011W) was 1.5. The “level of expressed mRNA in the presence/in the absence of chemical substance” value (yeast gene YEL063C) was 1.1, the “level of expressed mRNA in the presence/in the absence of chemical substance” value (yeast gene YER015W) was 0.8 and the “The level of expressed mRNA in the presence of chemical substance/The level of expressed mRNA in the absence of chemical substance” value (yeast gene YER026C) was 1.9. The “The level of expressed mRNA in the presence of chemical substance/The level of expressed mRNA in the absence of chemical substance” value (yeast gene YER053C) was 4.1, the “The level of expressed mRNA in the presence of chemical substance/The level of expressed mRNA in the absence of chemical substance” value (yeast gene YER069W) was 1.4 and the “level of expressed mRNA in the presence/in the absence of chemical substance” value (yeast gene YER081W) was 0.6. The “The level of expressed mRNA in the presence of chemical substance/The level of expressed mRNA in the absence of chemical substance” value (yeast gene YER096W) was 2.3, the “level of expressed mRNA in the presence/in the absence of chemical substance” value (yeast gene YER120W) was 1.0 and the “The level of expressed mRNA in the presence of chemical substance/The level of expressed mRNA in the absence of chemical substance” value (yeast gene YER178W) was 2.4. The “level of expressed mRNA in the presence/in the absence of chemical substance” value (yeast gene YFL011W) was 0.8, the “The level of expressed mRNA in the presence of chemical substance/The level of expressed mRNA in the absence of chemical substance” value (yeast gene YFL030W) was 2.2 and the “The level of expressed mRNA in the presence of chemical substance/The level of expressed mRNA in the absence of chemical substance” value (yeast gene YFL031W) was 2.6. For the same compound, the “The level of expressed mRNA in the presence of chemical substance/The level of expressed mRNA in the absence of chemical substance” value (yeast gene YFL056C) was 4.7, the “The level of expressed mRNA in the presence of chemical substance/The level of expressed mRNA in the absence of chemical substance” value (yeast gene YFL057C) was 4.1 and the “level of expressed mRNA in the presence/in the absence of chemical substance” value (yeast gene YGL012W) was 0.3. For the same compound, the “The level of expressed mRNA in the presence of chemical substance/The level of expressed mRNA in the absence of chemical substance” value (yeast gene YGL022W) was 1.0, the “level of expressed mRNA in the presence/in the absence of chemical substance” value (yeast gene YGL115W) was 0.7 and the “The level of expressed mRNA in the presence of chemical substance/The level of expressed mRNA in the absence of chemical substance” value (yeast gene YGL184C) was 7.4. For the same compound, the “level of expressed mRNA in the presence/in the absence of chemical substance” value (yeast gene YGL205W) was 1.0, the “The level of expressed mRNA in the presence of chemical substance/The level of expressed mRNA in the absence of chemical substance” value (yeast gene YGL209W) was 1.9 and the “The level of expressed mRNA in the presence of chemical substance/The level of expressed mRNA in the absence of chemical substance” value (yeast gene YGL248W) was 2.0. The “The level of expressed mRNA in the presence of chemical substance/The level of expressed mRNA in the absence of chemical substance” value (yeast gene YGR055W) was 1.9, the “level of expressed mRNA in the presence/in the absence of chemical substance” value (yeast gene YGR096W) was 1.1 and the “level of expressed mRNA in the presence/in the absence of chemical substance” value (yeast gene YGR191W) was 1.0. For the same compound, the “The level of expressed mRNA in the presence of chemical substance/The level of expressed mRNA in the absence of chemical substance” value (yeast gene YGR194C) was 2.2, the “level of expressed mRNA in the presence/in the absence of chemical substance” value (yeast gene YGR204W) was 1.3 and the “The level of expressed mRNA in the presence of chemical substance/The level of expressed mRNA in the absence of chemical substance” value (yeast gene YGR282C) was 1.2. The “level of expressed mRNA in the presence/in the absence of chemical substance” value (yeast gene YGR288W) was 1.3, the “level of expressed mRNA in the presence/in the absence of chemical substance” value (yeast gene YHR025W) was 0.7 and the “The level of expressed mRNA in the presence of chemical substance/The level of expressed mRNA in the absence of chemical substance” value (yeast gene YHR111W) was 2.2. The “level of expressed mRNA in the presence/in the absence of chemical substance” value (yeast gene YHR123W) was 1.5, the “The level of expressed mRNA in the presence of chemical substance/The level of expressed mRNA in the absence of chemical substance” value (yeast gene YHR137W) was 0.6 and the “The level of expressed mRNA in the presence of chemical substance/The level of expressed mRNA in the absence of chemical substance” value (yeast gene YHR176W) was 1.9. For the same compound, the “level of expressed mRNA in the presence/in the absence of chemical substance” value (yeast gene YHR210C) was 0.4, the “level of expressed mRNA in the presence/in the absence of chemical substance” value (yeast gene YIL006W) was 0.8 and the “The level of expressed mRNA in the presence of chemical substance/The level of expressed mRNA in the absence of chemical substance” value (yeast gene YIL045W) was 2.0. For the same compound, the “The level of expressed mRNA in the presence of chemical substance/The level of expressed mRNA in the absence of chemical substance” value (yeast gene YIL107C) was 1.9, the “The level of expressed mRNA in the presence of chemical substance/The level of expressed mRNA in the absence of chemical substance” value (yeast gene YIL154C) was 1.7 and the “The level of expressed mRNA in the presence of chemical substance/The level of expressed mRNA in the absence of chemical substance” value (yeast gene YIL155C) was 2.0. The “The level of expressed mRNA in the presence of chemical substance/The level of expressed mRNA in the absence of chemical substance” value (yeast gene YIL167W) was 1.2, the “The level of expressed mRNA in the presence of chemical substance/The level of expressed mRNA in the absence of chemical substance” value (yeast gene YIR034C) was 2.6 and the “The level of expressed mRNA in the presence of chemical substance/The level of expressed mRNA in the absence of chemical substance” value (yeast gene YIR036C) was 1.9. The “The level of expressed mRNA in the presence of chemical substance/The level of expressed mRNA in the absence of chemical substance” value (yeast gene YJL031C) was 2.6, the “The level of expressed mRNA in the presence of chemical substance/The level of expressed mRNA in the absence of chemical substance” value (yeast gene YJL068C) was 2.7 and the “The level of expressed mRNA in the presence of chemical substance/The level of expressed mRNA in the absence of chemical substance” value (yeast gene YJL088W) was 1.0.
